Several values for one entry are separate records, joined by “and”; a condition that tells them apart may be missing. Identical values can stand only once. Counter-ions that a name gives are not always drawn.
Key:
[1] = tested on: Staphylococcus aureus MW2 delta-mecA (mecA-); experiment: IC50 (growth, competition assay); settings: cefoxitin: subinhibitory
Procedure, shortened: (§1)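 Two fluorescent S. aureus MW2 strains, one carrying and one lacking the resistance gene, were pre-induced, mixed 1:1 and grown unshaken in LB in 1536-well plates for 20 h at 37 °C and 90% humidity with a subinhibitory drug dose set each day. Compounds were tested on five- or nine-point 2-fold gradients in two dye-swapped replicates. DsRed (540/590) and GFP (485/520) signals were scaled per plate between the medians of single-strain controls, and No Treatment was then set to 0.5. For each strain, IC50 was taken as the dose that halved the No Treatment signal, or else the maximal signal.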

[2] = tested on: Staphylococcus aureus MW2 (mecA+); experiment: IC50 (growth, competition assay); settings: cefoxitin: subinhibitory
Procedure, shortened: as §1

Row | SMILES | IC50 ([1]; fluorescent label: DsRed) | IC50 ([1]; fluorescent label: GFP) | IC50 ([2]; fluorescent label: DsRed) | IC50 ([2]; fluorescent label: GFP)
1 | COc1c(N2CCNC(C)C2)c(F)cc2c(=O)c(C(=O)O)cn(C3CC3)c12 (stereo unspecified) [TEQUIN] | < 9.85 µM | < 9.85 µM | < 9.85 µM | < 9.85 µM
2 | O=[N+]([O-])c1ccc(O)c2ncccc12 [ENTEROCOL] | 38.4 µM | < 9.85 µM | 16.2 µM | 54.4 µM
3 | CCCCC(CC)COC(=O)CC(C(=O)OCC(CC)CCCC)S(=O)(=O)O (stereo unspecified) [COLACE] | 18 µM | 13.5 µM | 56.6 µM | 52.5 µM
4 | CC(=O)Oc1c2c(c(CC=C(C)C)c3c1C(=O)C1=C[C@@H]4CC5C(C)(C)OC(C/C=C(\C)C(=O)O)(C4=O)[C@@]15O3)OC(C)(CCC=C(C)C)C=C2 (stereo partly specified) [ACETYL ISOGAMBOGIC ACID] | < 9.85 µM | < 9.85 µM | 13.5 µM | 17.2 µM
5 | CSc1nc2cc(Cl)c(Oc3cccc(Cl)c3Cl)cc2[nH]1 [TRICLABENDAZOLE] | < 9.85 µM | < 9.85 µM | 14.4 µM | 13.9 µM
6 | C[C@H]1c2cccc(O)c2C(=O)C2=C(O)[C@]3(O)C(=O)C(C(N)=O)=C(O)[C@@H](N(C)C)[C@@H]3[C@@H](O)[C@@H]21 [Doxycycline HCl] | < 9.85 µM | < 9.85 µM | < 9.85 µM | < 9.85 µM
7 | Cc1ccc(-c2cc(C(F)(F)F)nn2-c2ccc(S(N)(=O)=O)cc2)cc1 [Celecoxib] | 8.58 µM and 20.1 µM | 9.91 µM and 18.2 µM | 114 µM and 112 µM | 112 µM and 95.4 µM
8 | CC1CCc2c(N3CCC(O)CC3)c(F)cc3c(=O)c(C(=O)O)cn1c23 (stereo unspecified) [ACUATIM] | < 9.85 µM | < 9.85 µM | < 9.85 µM | < 9.85 µM
9 | [O-][n+]1ccccc1[S-].[O-][n+]1ccccc1[S-].[Zn+2] [ZINC OMADINE] | < 9.85 µM | < 9.85 µM | < 9.85 µM | < 9.85 µM
10 | O=C(O)c1ccccc1Nc1cccc(C(F)(F)F)c1 [ARLEF] | < 9.85 µM | 24.8 µM | 17.2 µM | 19 µM
11 | CC1=C(O)C(=O)C=C2C1=CC=C1[C@@]2(C)CC[C@@]2(C)[C@@H]3C[C@](C)(C(=O)O)CC[C@]3(C)CC[C@]12C [Celastrol] | < 0.498 µM | < 0.498 µM | 1.67 µM | 1.73 µM
12 | CN(C)C[C@H](O)Cn1c2ccc(Br)cc2c2cc(Br)ccc21 (racemic) [Wiskostatin] | < 9.85 µM | < 9.85 µM | 17.6 µM | 20.5 µM
13 | COc1ccc(CCN2CCC(Nc3nc4ccccc4n3Cc3ccc(F)cc3)CC2)cc1 [HISMANAL] | 45.1 µM | 20.2 µM | 80.2 µM | 106 µM
14 | C[C@H]1COc2c(C3(N)CC3)c(F)cc3c(=O)c(C(=O)O)cn1c23 [PAZUCROSS] | < 9.85 µM | < 9.85 µM | < 9.85 µM | < 9.85 µM
15 | COc1cc([C@@H]2c3cc4c(cc3[C@@H](O[C@@H]3O[C@@H]5CO[C@@H](c6cccs6)O[C@H]5[C@H](O)[C@H]3O)[C@H]3COC(=O)[C@H]23)OCO4)cc(OC)c1O [VUMON] | < 9.85 µM | < 9.85 µM | < 9.85 µM | < 9.85 µM
16 | c1ccc(-c2ccc(C(c3ccccc3)n3ccnc3)cc2)cc1 (stereo unspecified) [MYCOSPOR] | 16.8 µM | 10.5 µM | 15.5 µM | 19.1 µM
17 | CC(C)c1cccc(C(C)C)c1N1C(=O)c2ccc(O)cc2C1=O [5HPP-33] | 40.7 µM | < 9.85 µM | 25.8 µM | 111 µM
18 | COc1cccc2c1[C@@H]1CN(CCCCn3c(=O)[nH]c4c(sc5ncc(-c6ccccc6)nc54)c3=O)C[C@@H]1CO2 [Fiduxosin hydrochloride] | 10.5 µM | 12.6 µM | 28.5 µM | 29.8 µM
19 | O=C1NC(=O)/C(=C/c2cccc(C(F)(F)F)c2)S1 [SMI-4a] | < 9.85 µM | 12.2 µM and 14.6 µM | < 9.85 µM | < 9.85 µM
20 | CC[C@H]1OC(=O)C[C@@H](O)[C@H](C)[C@@H](O[C@@H]2O[C@H](C)[C@@H](O)[C@H](N(C)C)[C@H]2O)[C@@H](CCN2C[C@H](C)C[C@H](C)C2)C[C@@H](C)C(=O)/C=C/C(C)=C/[C@@H]1CO[C@@H]1O[C@H](C)[C@@H](O)[C@@H](OC)[C@H]1OC [MICOTIL] | 13.4 µM | < 9.85 µM | 18.8 µM | 28.3 µM
21 | CC(=O)Oc1cc2c(c(C)c1OC(C)=O)CC=C1[C@@]2(C)CC[C@@]2(C)C3C[C@](C)(C(=O)O)CC[C@]3(C)CC[C@]12C (stereo partly specified) [DIHYDROCELASTRYL DIACETATE] | < 9.85 µM | < 9.85 µM | < 9.85 µM | < 9.85 µM
22 | CCn1nc(C(=O)O)c(=O)c2cc3c(cc21)OCO3 [CINOBAC] | 108 µM | 125 µM | > 150 µM | 115 µM

Row | SMILES | IC50 ([1]; fluorescent label: DsRed) | IC50 ([1]; fluorescent label: GFP) | IC50 ([2]; fluorescent label: DsRed) | IC50 ([2]; fluorescent label: GFP)
23 | CCOc1nc2cccc(C(=O)OC(C)OC(=O)OC3CCCCC3)c2n1Cc1ccc(-c2ccccc2-c2nn[nH]n2)cc1 (stereo unspecified) [ATACAND] | < 9.85 µM | < 9.85 µM | 9.89 µM | 14.8 µM
24 | CC[C@H](c1ccc(O)cc1)[C@@H](CC)c1ccc(O)cc1 [HEXESTROL] | < 9.85 µM | < 9.85 µM | < 9.85 µM | 29.7 µM
25 | NC1CCN(c2c(F)cc3c(=O)c(C(=O)O)cn(C4CC4)c3c2Cl)C1 (stereo unspecified) [CLINAFOXACIN HYDROCHLORIDE] | < 9.85 µM | < 9.85 µM | < 9.85 µM | < 9.85 µM
26 | C[C@@H](O[C@H]1OCCN(Cc2n[nH]c(=O)[nH]2)[C@H]1c1ccc(F)cc1)c1cc(C(F)(F)F)cc(C(F)(F)F)c1 [Aprepitant (MK-0869)] | 18.9 µM | 17.8 µM | 45 µM | 54.3 µM
27 | COc1ccc([C@@H](C)C(=O)c2ccc(O)cc2O)cc1 [ANGOLENSIN (R)] | < 9.85 µM | < 9.85 µM | 22.3 µM | 27.7 µM
28 | COc1cc(NS(C)(=O)=O)ccc1Nc1c2ccccc2nc2ccccc12 [AMSIDYL] | < 9.85 µM | < 9.85 µM | 74.3 µM | 76.1 µM
29 | CN(C)c1ccc(C(=C2C=CC(=[N+](C)C)C=C2)c2ccc(N(C)C)cc2)cc1 [Crystal violet] | < 0.498 µM | < 0.498 µM | 0.691 µM | 0.758 µM
30 | O=S(=O)(O)c1cc(I)c(O)c2ncccc12 [YATREN] | 49.8 µM | 59.8 µM | 84.9 µM | 102 µM
31 | COc1cc(Nc2ncc3c(n2)-c2ccc(Cl)cc2C(c2c(F)cccc2OC)=NC3)ccc1C(=O)O [MLN8237 (Alisertib)] | < 9.85 µM | < 9.85 µM | 12.4 µM | 27.5 µM
32 | COc1cc([C@@H]2c3cc4c(cc3[C@@H](O[C@@H]3O[C@@H]5CO[C@@H](C)O[C@H]5[C@H](O)[C@H]3O)[C@H]3COC(=O)[C@H]23)OCO4)cc(OC)c1O [Etoposide] | < 9.85 µM | < 9.85 µM | 14.9 µM | 14.9 µM
33 | CN(N=O)C(=O)N[C@@H]1[C@@H](O)[C@H](O)[C@@H](CO)O[C@@H]1O [ZANOSAR] | < 9.85 µM | < 9.85 µM | < 9.85 µM | < 9.85 µM
34 | O=C(O)c1cn(-c2ccc(F)cc2)c2cc(N3CCNCC3)c(F)cc2c1=O [Sarafloxacin HCl] | < 0.498 µM | < 0.498 µM | < 0.498 µM | < 0.498 µM
35 | Cc1onc(-c2ccccc2)c1C(=O)N[C@@H]1C(=O)N2[C@@H]1SC(C)(C)[C@@H]2C(=O)O [BACTOCILL] | < 9.85 µM | < 9.85 µM | < 9.85 µM | < 9.85 µM
36 | Cc1cc(Nc2nc(N[C@@H](C)c3ccc(F)cc3)c(C#N)cc2F)n[nH]1 [AZ 960] | 2.4 µM | 1.67 µM | 110 µM | 112 µM
37 | C=C1C(=O)[C@]23[C@H](O)[C@H]1CC[C@H]2[C@@]12CO[C@]3(O)[C@@H](O)[C@@H]1C(C)(C)CC[C@@H]2O [Oridonin (Isodonol)] | 13.7 µM | < 9.85 µM | 29.5 µM | 51.5 µM
38 | C#CCCCCCCCCCCCC(O)CC(O)CO.C=CCCCCCCCCCCCC(O)CC(O)CO (stereo unspecified) | < 9.85 µM | < 9.85 µM | 16.4 µM | 26.3 µM
39 | CN(C)CCC=C1c2ccccc2CCc2ccccc21 [ELAVIL] | 33.3 µM | 18.5 µM | 111 µM | 112 µM
40 | CO/N=C(\C(=O)N[C@@H]1C(=O)N2C(C(=O)O)=C(CSc3nnnn3C)CS[C@H]12)c1csc(N)n1 [CEFMAX] | < 9.85 µM | < 9.85 µM | < 9.85 µM | < 9.85 µM
41 | C=C(CC)C(=O)c1ccc(OCC(=O)O)c(Cl)c1Cl [EDECRIN] | < 9.85 µM | < 9.85 µM | 34.1 µM | 36.7 µM
42 | CC[C@@H](C(=O)O)[C@@H]1O[C@@H]([C@@H](C)[C@H](O)[C@H](C)C(=O)[C@H](CC)[C@H]2O[C@]3(C=C[C@@H](O)[C@]4(CC[C@@](C)([C@H]5CC[C@](O)(CC)[C@H](C)O5)O4)O3)[C@H](C)C[C@@H]2C)[C@@H](C)C[C@@H]1C [NARASIN] | < 9.85 µM | < 9.85 µM | < 9.85 µM | < 9.85 µM
43 | O=C1C(SCCO)=C(SCCO)C(=O)c2ccccc21 | < 9.85 µM | < 9.85 µM | 11.8 µM | 16.3 µM
44 | Cc1cc(Nc2ncc(Cl)c(Nc3ccccc3S(=O)(=O)C(C)C)n2)c(OC(C)C)cc1C1CCNCC1 [Ceritinib (LDK378)] | < 9.85 µM | < 9.85 µM | 29 µM | 27.7 µM
